# From ChEMBL document CHEMBL2406977, “The discovery of PLK4 inhibitors: (E)-3-((1H-Indazol-6-yl)methylene)indolin-2-ones as novel antiproliferative agents” (J Med Chem, 2013)
# Tests used:
# [1] = target: Serine/threonine-protein kinase PLK1 (Homo sapiens, UniProt P53350); assay: Inhibition of PLK1 (unknown origin) by FRET-based homogeneous assay
# [2] = target: T1, Serine/threonine-protein kinase PLK4 (Homo sapiens, UniProt O00444); assay: Inhibition of N-terminal GST-tagged human PLK4 (1 to 391 amino acids) expressed in Escherichia coli using TMB as substrate after 30 mins by indirect ELISA assay
# T1 sequence (O00444 whole entry): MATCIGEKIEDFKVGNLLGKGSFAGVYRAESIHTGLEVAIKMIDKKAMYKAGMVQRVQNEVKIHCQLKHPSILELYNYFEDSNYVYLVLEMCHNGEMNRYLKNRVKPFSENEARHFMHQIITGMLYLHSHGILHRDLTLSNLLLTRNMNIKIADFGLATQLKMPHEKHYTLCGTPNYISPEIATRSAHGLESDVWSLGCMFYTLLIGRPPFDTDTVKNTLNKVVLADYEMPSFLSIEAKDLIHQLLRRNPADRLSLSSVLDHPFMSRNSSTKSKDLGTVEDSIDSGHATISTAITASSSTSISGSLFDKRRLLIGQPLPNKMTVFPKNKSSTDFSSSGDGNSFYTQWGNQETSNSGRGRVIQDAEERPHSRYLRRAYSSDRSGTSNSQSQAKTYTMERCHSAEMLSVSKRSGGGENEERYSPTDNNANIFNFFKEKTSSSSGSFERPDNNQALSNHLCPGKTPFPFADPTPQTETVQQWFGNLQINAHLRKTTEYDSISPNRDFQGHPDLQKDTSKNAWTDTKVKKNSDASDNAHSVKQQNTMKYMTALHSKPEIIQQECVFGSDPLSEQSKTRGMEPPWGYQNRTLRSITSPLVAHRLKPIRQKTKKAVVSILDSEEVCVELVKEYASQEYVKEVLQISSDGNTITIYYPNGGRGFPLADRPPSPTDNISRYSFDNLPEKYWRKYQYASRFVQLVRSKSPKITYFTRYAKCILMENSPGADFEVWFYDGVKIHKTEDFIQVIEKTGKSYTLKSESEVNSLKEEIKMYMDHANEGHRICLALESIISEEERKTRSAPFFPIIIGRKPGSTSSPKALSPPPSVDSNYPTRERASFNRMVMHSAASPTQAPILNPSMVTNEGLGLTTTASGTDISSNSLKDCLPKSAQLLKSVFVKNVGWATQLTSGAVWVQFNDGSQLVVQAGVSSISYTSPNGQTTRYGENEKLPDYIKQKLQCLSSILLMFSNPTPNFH
# [3] = target: Serine/threonine-protein kinase PLK2 (Homo sapiens, UniProt Q9NYY3); assay: Inhibition of PLK2 (unknown origin) by FRET-based homogeneous assay
# [4] = target: Serine/threonine-protein kinase PLK3 (Homo sapiens, UniProt Q9H4B4); assay: Inhibition of PLK3 (unknown origin) by FRET-based homogeneous assay
# HCC1954 = assay: Antiproliferative activity against human HCC1954 cells assessed as growth inhibition after 5 days by SRB assay; type: functional; conditions: HCC1954, 120 h
# MDA-MB-468 = assay: Antiproliferative activity against human MDA-MB-468 cells assessed as growth inhibition after 5 days by SRB assay; type: functional; conditions: MDA-MB-468, 120 h
# Serine/threonine-protein kinase PLK3, sequence (Q9H4B4 whole entry): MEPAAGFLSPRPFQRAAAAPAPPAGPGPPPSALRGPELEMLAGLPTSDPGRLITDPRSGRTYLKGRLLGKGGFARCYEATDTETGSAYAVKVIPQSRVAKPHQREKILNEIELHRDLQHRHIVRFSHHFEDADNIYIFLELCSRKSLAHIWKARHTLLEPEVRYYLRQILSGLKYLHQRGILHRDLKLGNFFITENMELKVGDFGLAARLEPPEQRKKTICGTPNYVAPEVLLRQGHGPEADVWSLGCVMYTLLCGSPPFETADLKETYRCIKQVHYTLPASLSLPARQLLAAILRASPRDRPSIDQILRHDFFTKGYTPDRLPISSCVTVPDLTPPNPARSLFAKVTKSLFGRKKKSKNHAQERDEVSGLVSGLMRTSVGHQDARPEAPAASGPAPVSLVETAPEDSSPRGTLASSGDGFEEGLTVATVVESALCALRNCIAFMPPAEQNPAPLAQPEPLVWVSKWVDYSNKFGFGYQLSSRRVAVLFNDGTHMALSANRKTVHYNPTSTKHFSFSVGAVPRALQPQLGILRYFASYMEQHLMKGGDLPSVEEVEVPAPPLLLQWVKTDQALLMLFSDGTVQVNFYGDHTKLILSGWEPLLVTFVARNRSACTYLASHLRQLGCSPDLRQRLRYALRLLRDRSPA
# Serine/threonine-protein kinase PLK1, sequence (P53350 whole entry, the tested form may be a part): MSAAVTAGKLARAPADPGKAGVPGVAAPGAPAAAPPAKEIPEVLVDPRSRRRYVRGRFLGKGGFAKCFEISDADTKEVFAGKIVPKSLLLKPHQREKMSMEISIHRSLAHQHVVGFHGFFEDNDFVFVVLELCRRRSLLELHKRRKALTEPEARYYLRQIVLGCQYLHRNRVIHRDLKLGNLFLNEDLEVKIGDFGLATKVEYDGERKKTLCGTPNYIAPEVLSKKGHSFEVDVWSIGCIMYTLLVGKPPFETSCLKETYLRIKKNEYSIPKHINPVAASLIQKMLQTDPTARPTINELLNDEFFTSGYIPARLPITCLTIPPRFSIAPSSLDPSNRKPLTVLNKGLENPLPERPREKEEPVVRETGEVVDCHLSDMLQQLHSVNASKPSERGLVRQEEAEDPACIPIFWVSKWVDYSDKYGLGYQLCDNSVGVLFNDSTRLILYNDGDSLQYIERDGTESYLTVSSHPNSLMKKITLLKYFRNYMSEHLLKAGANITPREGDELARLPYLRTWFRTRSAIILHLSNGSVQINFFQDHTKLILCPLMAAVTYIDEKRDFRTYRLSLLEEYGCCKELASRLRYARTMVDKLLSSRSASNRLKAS
# Serine/threonine-protein kinase PLK2, sequence (Q9NYY3 whole entry): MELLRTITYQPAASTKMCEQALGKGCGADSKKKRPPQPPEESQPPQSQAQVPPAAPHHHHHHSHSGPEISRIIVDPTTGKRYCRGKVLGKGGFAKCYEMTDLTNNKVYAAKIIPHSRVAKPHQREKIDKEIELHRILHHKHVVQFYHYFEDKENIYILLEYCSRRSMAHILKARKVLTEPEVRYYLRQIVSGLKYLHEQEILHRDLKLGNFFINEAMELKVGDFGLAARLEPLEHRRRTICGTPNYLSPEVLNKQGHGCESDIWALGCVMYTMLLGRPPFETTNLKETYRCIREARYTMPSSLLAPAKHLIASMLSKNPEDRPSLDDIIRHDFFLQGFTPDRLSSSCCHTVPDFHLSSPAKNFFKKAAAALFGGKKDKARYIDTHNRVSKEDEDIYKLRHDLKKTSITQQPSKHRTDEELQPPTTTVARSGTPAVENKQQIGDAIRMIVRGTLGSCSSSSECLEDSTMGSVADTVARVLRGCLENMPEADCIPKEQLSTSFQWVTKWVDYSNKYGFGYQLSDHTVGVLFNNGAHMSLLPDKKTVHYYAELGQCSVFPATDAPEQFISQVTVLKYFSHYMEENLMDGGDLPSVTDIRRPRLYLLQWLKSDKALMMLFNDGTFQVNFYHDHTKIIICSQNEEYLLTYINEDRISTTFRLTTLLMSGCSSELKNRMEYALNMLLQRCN
Structure (SMILES),IC50 [1] [µM],IC50 [2] [µM],IC50 [3] [µM],IC50 [4] [µM],GI50 (HCC1954) [µM],GI50 (MDA-MB-468) [µM]
O=C1Nc2ccccc2/C1=C/c1ccccc1O,29,6.1,–,–,–,–
O=C1Nc2ccc(Br)cc2/C1=C/c1ccc(O)c(O)c1,> 10,13,–,–,–,–
O=C1Nc2ccccc2/C1=C\c1ccc2[nH]nnc2c1,29,2.2,8.9,> 10,–,–
O=C1Nc2ccccc2/C1=C/c1ccc2[nH]ncc2c1,20,0.39,1.9,11,–,–
O=C1Nc2ccccc2/C1=C\c1ccc2cn[nH]c2c1,24,–,5.7,> 10,–,–
O=C1Nc2ccc(F)cc2/C1=C\c1ccc2cn[nH]c2c1,15,0.06,4.4,–,–,–
O=C1Nc2ccc(F)cc2/C1=C/c1ccc2cn[nH]c2c1,15,0.24,> 10,24,–,–
O=C1Nc2ccc(Cl)cc2/C1=C\c1ccc2cn[nH]c2c1,> 10,0.054,> 10,> 10,–,–
O=C1Nc2cc(Cl)ccc2/C1=C\c1ccc2cn[nH]c2c1,26,1.3,> 10,> 10,–,–
COc1ccc2c(c1)/C(=C\c1ccc3cn[nH]c3c1)C(=O)N2,10,0.047,< 10,< 10,–,–
CNC(=O)c1ccc2c(c1)/C(=C\c1ccc3cn[nH]c3c1)C(=O)N2,49,10,–,–,–,–
CC(=O)Nc1ccc2c(c1)/C(=C\c1ccc3cn[nH]c3c1)C(=O)N2,> 10,6.3,10,> 10,–,–
CC(=O)Nc1ccc2c(c1)NC(=O)/C2=C/c1ccc2cn[nH]c2c1,> 10,1.2,10,> 10,–,–
O=C1Nc2ccccc2/C1=C/c1ccc(O)cc1,25,0.23,–,–,–,–
O=C1Nc2ccc(I)cc2/C1=C/c1cc(Br)c(O)c(Br)c1,4.6,0.23,–,–,–,–
CNC(=O)c1ccccc1Sc1ccc2c(/C=C/c3ccccn3)n[nH]c2c1 [AXITINIB],–,–,–,–,2.7,1.3
